According to patent publication US10487093B2, “Heterocyclic compounds, in particular 2-oxo-4,4,5,5,6,6,7,7-octahydrobenzoxazole derivatives, and their use as antibacterial compounds” (priority 2016, dated 2019):
Values after ≈ are worked out from the molar mass of the structure shown.

What was measured:
[1] = system: Haemophilus influenzae ATCC 49247; test: MIC, broth microdilution (CLSI) versus planktonic bacteria; type: cell-based; details: ATCC49247; Haemophilus influenzae ATCC 49247; 16-20 h; mode of three independent experiments; read-out: MIC, Hi ATCC 49247
[2] = system: E. coli MG1655 D87G; type: cell-based, Escherichia coli; details: compared to the isogenic parent strain E. coli MG1655; D87G mutation on DNA gyrase subunit GyrA
[3] = system: Escherichia coli ATCC 25922; test: MIC, broth microdilution (CLSI) versus planktonic bacteria; type: cell-based; details: ATCC25922; Escherichia coli ATCC 25922; 16-20 h; mode of three independent experiments; read-out: MIC, Ec ATCC 25922
[4] = system: Pseudomonas aeruginosa ATCC 27853; test: as above; type: cell-based; details: ATCC27853; Pseudomonas aeruginosa ATCC 27853; 16-20 h; mode of three independent experiments; read-out: MIC, Pa ATCC 27853
[5] = system: E. coli NCTC 13476; test: as above; type: cell-based; details: NCTC13476; Escherichia coli NCTC 13476; 16-20 h; mode of three independent experiments; read-out: MIC, Ec NCTC 13476
[6] = system: Streptococcus pneumoniae ATCC 49619; test: as above; type: cell-based; details: ATCC49619; Streptococcus pneumoniae ATCC 49619; 16-20 h; mode of three independent experiments; read-out: MIC, Sp ATCC 49619
[7] = system: human hepatic cell line (HepG2 ATCC HB-8065); test: Human cell viability assay (CellTiter-Glo); details: Homo sapiens, HepG2, 24 h, read-out: IC50 (μg/mL) HepG2
[8] = system: Staphylococcus aureus ATCC 29213; test: MIC, broth microdilution (CLSI) versus planktonic bacteria; type: cell-based; details: ATCC29213; Staphylococcus aureus ATCC 29213; 16-20 h; mode of three independent experiments; read-out: MIC, Sa ATCC 29213
[9] = system: E. coli ATCC BAA-2452; test: as above; type: cell-based; details: Escherichia coli ATCC BAA-2452; 16-20 h; mode of three independent experiments; read-out: MIC, Ec ATCC BAA 2452
[10] = system: Acinetobacter baumannii NCTC 13420; test: as above; type: cell-based; details: NCTC13420; Acinetobacter baumannii NCTC 13420; 16-20 h; mode of three independent experiments; read-out: MIC, Ab NCTC 13420
[11] = system: E. coli MG1655 S83L; type: cell-based, Escherichia coli; details: compared to the isogenic parent strain E. coli MG1655; S83L mutation on DNA gyrase subunit GyrA
[12] = system: Acinetobacter baumannii ATCC 19606; test: MIC, broth microdilution (CLSI) versus planktonic bacteria; type: cell-based; details: ATCC19606; Acinetobacter baumannii ATCC 19606; 16-20 h; mode of three independent experiments; read-out: MIC, Ab ATCC 19606
[13] = system: E. coli MG1655; test: as above; type: cell-based, Escherichia coli; details: Escherichia coli, MG1655, read-out: MIC, Ec MG1655 WT
[14] = system: Enterobacter cloacae NCTC 13406; test: as above; type: cell-based; details: NCTC13406; Enterobacter cloacae NCTC 13406; 16-20 h; mode of three independent experiments; read-out: MIC, Ecl NCTC 13406

Structure (SMILES)	MIC [1] [µg/mL]	Fold increase in MIC, E. coli MG1655 D87G [2] [fold]	MIC [3] [µg/mL]	MIC [4] [µg/mL]	MIC [5] [µg/mL]	MIC [6] [µg/mL]	IC50 [7] [µg/mL]	MIC [8] [µg/mL]	MIC [9] [µg/mL]	MIC [10] [µg/mL]	Fold increase in MIC, E. coli MG1655 S83L [11] [fold]	MIC [12] [µg/mL]	MIC [13] [µg/mL]	MIC [14] [µg/mL]
COc1cnc2ccc(=O)n(CCCN[C@H]3CC[C@H]4[C@H](C3)OC(=O)N4c3ccc4c(n3)NC(=O)CO4)c2c1 [Compound 99, 1-(3-{[(3aS,6S,7aS)-2-oxo-3-{3-oxo-2H,3H,4H-pyrido[3,2-b][1,4]oxazin-6-yl}-octahydro-1,3-benzoxazol-6-yl]amino}propyl)-7-methoxy-1,2-dihydro-1,5-naphthyridin-2-one]	< 1	1	< 1	1 to 10 (≈ 1.92 to 19.2 µM)	< 1	< 1	10 to 100 (≈ 19.2 to 192 µM)	< 1	< 1	< 1	0.5	1 to 10 (≈ 1.92 to 19.2 µM)	< 1	1 to 10 (≈ 1.92 to 19.2 µM)
N#Cc1ccc2ncc(=O)n(CCN[C@H]3CC[C@H]4[C@@H](C3)OC(=O)N4c3ccc4c(n3)NC(=O)CO4)c2c1 [Compound 31, 4-(2-{[(3aS,6S,7aR)-2-oxo-3-{3-oxo-2H,3H,4H-pyrido[3,2-b][1,4]oxazin-6-yl}-octahydro-1,3-benzoxazol-6-yl]amino}ethyl)-3-oxo-3,4-dihydroquinoxaline-6-carbonitrile]	< 1	2	< 1	1 to 10 (≈ 1.99 to 19.9 µM)	1 to 10 (≈ 1.99 to 19.9 µM)	< 1	> 100	< 1	< 1	< 1	1	< 1	< 1	< 1
COc1ccc2ncc(=O)n(CCN[C@H]3CC[C@H]4[C@@H](C3)OC(=O)N4c3ccc4c(n3)NC(=O)CO4)c2n1 [Compound 35, (3aS,6S,7aR)-6-[(2-{6-methoxy-3-oxo-3H,4H-pyrido[2,3-b]pyrazin-4-yl}ethyl)amino]-3-{3-oxo-2H,3H,4H-pyrido[3,2-b][1,4]oxazin-6-yl}-octahydro-1,3-benzoxazol-2-one]	< 1	2	< 1	< 1	< 1	< 1	> 100	< 1	< 1	< 1	1	< 1	< 1	< 1
O=C1COc2ccc(N3C(=O)O[C@H]4C[C@@H](NCCCn5c(=O)cnc6cc(F)c(F)cc65)CC[C@@H]43)nc2N1 [Compound 90, 1-(3-{[(3aS,6S,7aS)-2-oxo-3-{3-oxo-2H,3H,4H-pyrido[3,2-b][1,4]oxazin-6-yl}-octahydro-1,3-benzoxazol-6-yl]amino}propyl)-6,7-difluoro-1,2-dihydroquinoxalin-2-one]	< 1	4	< 1	1 to 10 (≈ 1.9 to 19 µM)	< 1	< 1	10 to 100 (≈ 19 to 190 µM)	< 1	< 1	< 1	2	< 1	< 1	< 1
COc1ccc2ccc(=O)n(CCN[C@H]3CC[C@H]4[C@H](C3)OC(=O)N4c3ncc4c(n3)NC(=O)CO4)c2n1 [Compound 67, 1-(2-{[(3aS,6S,7aS)-2-oxo-3-{7-oxo-6H,7H,8H-pyrimido[5,4-b][1,4]oxazin-2-yl}-octahydro-1,3-benzoxazol-6-yl]amino}ethyl)-7-methoxy-1,2-dihydro-1,8-naphthyridin-2-one]	< 1	1	< 1	1 to 10 (≈ 1.97 to 19.7 µM)	1 to 10 (≈ 1.97 to 19.7 µM)	< 1	> 100	< 1	1 to 10 (≈ 1.97 to 19.7 µM)	< 1	1	1 to 10 (≈ 1.97 to 19.7 µM)	< 1	1 to 10 (≈ 1.97 to 19.7 µM)
COc1cnnc(-c2cccc(CN[C@@H]3CC[C@@H]4[C@@H](C3)OC(=O)N4c3ccc4c(n3)NC(=O)CO4)c2O)c1 [Compound 72, (3aR,6R,7aR)-6-({[2-hydroxy-3-(5-methoxypyridazin-3-yl)phenyl]methyl}amino)-3-{3-oxo-2H,3H,4H-pyrido[3,2-b][1,4]oxazin-6-yl}-octahydro-1,3-benzoxazol-2-one]	< 1	0.5	< 1	1 to 10 (≈ 1.93 to 19.3 µM)	1 to 10 (≈ 1.93 to 19.3 µM)	1 to 10 (≈ 1.93 to 19.3 µM)	10 to 100 (≈ 19.3 to 193 µM)	< 1	< 1	< 1	0.5	< 1	< 1	1 to 10 (≈ 1.93 to 19.3 µM)
COc1ccc2ncc(=O)n(CCN[C@H]3CCC4C(C3)OC(=O)N4c3ccc4c(n3)NC(=O)CO4)c2n1 (stereo in doubt) [Compound 45, (3aS,6S,7aS)-6-[(2-{6-methoxy-3-oxo-3H,4H-pyrido[2,3-b]pyrazin-4-yl}ethyl)amino]-3-{3-oxo-2H,3H,4H-pyrido[3,2-b][1,4]oxazin-6-yl}-octahydro-1,3-benzoxazol-2-one]	< 1	1	< 1	1 to 10 (≈ 1.97 to 19.7 µM)	< 1	< 1	10 to 100 (≈ 19.7 to 197 µM)	< 1	< 1	< 1	2	< 1	< 1	< 1
N#Cc1cnc2ccc(=O)n(CCN[C@H]3CC[C@H]4[C@@H](C3)OC(=O)N4c3ccc4c(n3)NC(=O)CO4)c2c1 [Compound 46, 5-(2-{[(3aS,6S,7aR)-2-oxo-3-{3-oxo-2H,3H,4H-pyrido[3,2-b][1,4]oxazin-6-yl}-octahydro-1,3-benzoxazol-6-yl]amino}ethyl)-6-oxo-5,6-dihydro-1,5-naphthyridine-3-carbonitrile]	< 1	1	< 1	1 to 10 (≈ 1.99 to 19.9 µM)	1 to 10 (≈ 1.99 to 19.9 µM)	< 1	> 100	< 1	1 to 10 (≈ 1.99 to 19.9 µM)	1 to 10 (≈ 1.99 to 19.9 µM)	2	1 to 10 (≈ 1.99 to 19.9 µM)	< 1	< 1
COc1cnc2ccc(=O)n(CCN[C@@H]3CC[C@@H]4[C@@H](C3)OC(=O)N4c3ccc4c(n3)NC(=O)CO4)c2c1 [Compound 69, 1-(2-{[(3aR,6R,7aR)-2-oxo-3-{3-oxo-2H,3H,4H-pyrido[3,2-b][1,4]oxazin-6-yl}-octahydro-1,3-benzoxazol-6-yl]amino}ethyl)-7-methoxy-1,2-dihydro-1,5-naphthyridin-2-one]	< 1	1	< 1	1 to 10 (≈ 1.97 to 19.7 µM)	< 1	< 1	> 100	< 1	< 1	< 1	1	< 1	< 1	< 1
N#Cc1ccc2ccc(=O)n(CCN[C@H]3CC[C@H]4[C@@H](C3)OC(=O)N4c3ccc4c(n3)NC(=O)CO4)c2n1 [Compound 15, 8-(2-{[(3aS,6S,7aR)-2-oxo-3-{3-oxo-2H,3H,4H-pyrido[3,2-b][1,4]oxazin-6-yl}-octahydro-1,3-benzoxazol-6-yl]amino}ethyl)-7-oxo-7,8-dihydro-1,8-naphthyridine-2-carbonitrile]	1 to 10 (≈ 1.99 to 19.9 µM)	1	< 1	1 to 10 (≈ 1.99 to 19.9 µM)	1 to 10 (≈ 1.99 to 19.9 µM)	< 1	10 to 100 (≈ 19.9 to 199 µM)	< 1	1 to 10 (≈ 1.99 to 19.9 µM)	1 to 10 (≈ 1.99 to 19.9 µM)	1	1 to 10 (≈ 1.99 to 19.9 µM)	1 to 10 (≈ 1.99 to 19.9 µM)	1 to 10 (≈ 1.99 to 19.9 µM)
